Activity calls are given as the source filed them. The calls are words filed in the database; no cut-off is given here.
Key:
U-937 = assay: Antiproliferative activity against human U-937 cells assessed as cell growth inhibition after 72 hrs by CCK8 assay; type: functional, cell-based; settings: U-937, 72 h
A549 = assay: Antiproliferative activity against human A549 cells assessed as cell growth inhibition after 72 hrs by SRB assay; type: functional, cell-based; settings: A549, 72 h
MGC-803 [1] = assay: Antiproliferative activity against human MGC-803 cells assessed as cell growth inhibition after 72 hrs by SRB assay; type: functional, cell-based; settings: MGC-803, 72 h
HepG2 = assay: Antiproliferative activity against human HepG2 cells assessed as cell growth inhibition after 72 hrs by SRB assay; type: functional, cell-based; settings: HepG2, 72 h
MCF7 = assay: Antiproliferative activity against human MCF7 cells assessed as cell growth inhibition after 72 hrs by SRB assay; type: functional, cell-based; settings: MCF7, 72 h
HeLa = assay: Antiproliferative activity against human HeLa cells assessed as cell growth inhibition after 72 hrs by SRB assay; type: functional, cell-based
Histone deacetylase = assay: Inhibition of HDAC (unknown origin); type: protein assay, Homo sapiens
Tubulin = assay: Inhibition of tubulin polymerization (unknown origin) measured after 1 min by fluorescence assay; type: protein-complex assay, Homo sapiens
Histone deacetylase 1 = Histone deacetylase 1 (Homo sapiens, UniProt Q13547); assay: Inhibition of HDAC1 (unknown origin)
Sequence of Histone deacetylase 1 (Q13547 whole entry): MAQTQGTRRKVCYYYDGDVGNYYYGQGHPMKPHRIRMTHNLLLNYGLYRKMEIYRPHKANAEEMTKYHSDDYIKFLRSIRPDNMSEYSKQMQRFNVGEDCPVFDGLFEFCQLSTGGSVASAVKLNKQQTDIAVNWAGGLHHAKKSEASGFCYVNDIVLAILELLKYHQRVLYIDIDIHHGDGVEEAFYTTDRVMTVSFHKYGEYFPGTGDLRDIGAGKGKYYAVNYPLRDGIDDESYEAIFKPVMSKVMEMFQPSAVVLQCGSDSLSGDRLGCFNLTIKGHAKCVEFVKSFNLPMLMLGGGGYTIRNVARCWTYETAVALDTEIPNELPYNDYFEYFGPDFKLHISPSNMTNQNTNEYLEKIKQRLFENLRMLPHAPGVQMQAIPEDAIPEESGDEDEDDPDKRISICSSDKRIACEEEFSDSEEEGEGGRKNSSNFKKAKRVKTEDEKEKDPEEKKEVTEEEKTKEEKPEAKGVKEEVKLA

Histone deacetylase 2 = Histone deacetylase 2 (Homo sapiens, UniProt Q92769); assay: Inhibition of HDAC2 (unknown origin)
Sequence of Histone deacetylase 2 (Q92769 whole entry): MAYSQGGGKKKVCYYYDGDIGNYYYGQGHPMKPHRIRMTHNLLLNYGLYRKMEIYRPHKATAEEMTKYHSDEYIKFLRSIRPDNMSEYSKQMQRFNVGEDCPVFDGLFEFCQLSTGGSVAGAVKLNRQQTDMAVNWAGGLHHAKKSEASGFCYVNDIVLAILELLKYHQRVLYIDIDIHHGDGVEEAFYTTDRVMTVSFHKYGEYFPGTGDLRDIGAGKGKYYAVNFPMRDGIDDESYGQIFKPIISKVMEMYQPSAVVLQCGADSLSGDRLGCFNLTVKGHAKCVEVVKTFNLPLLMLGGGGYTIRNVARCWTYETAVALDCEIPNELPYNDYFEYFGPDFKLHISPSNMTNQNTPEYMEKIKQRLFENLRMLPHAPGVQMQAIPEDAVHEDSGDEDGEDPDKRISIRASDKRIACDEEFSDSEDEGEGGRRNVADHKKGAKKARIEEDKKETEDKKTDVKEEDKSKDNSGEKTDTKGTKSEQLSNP

Histone deacetylase 3 = Histone deacetylase 3 (Homo sapiens, UniProt O15379); assay: Inhibition of HDAC3 (unknown origin)
Sequence of Histone deacetylase 3 (O15379 whole entry): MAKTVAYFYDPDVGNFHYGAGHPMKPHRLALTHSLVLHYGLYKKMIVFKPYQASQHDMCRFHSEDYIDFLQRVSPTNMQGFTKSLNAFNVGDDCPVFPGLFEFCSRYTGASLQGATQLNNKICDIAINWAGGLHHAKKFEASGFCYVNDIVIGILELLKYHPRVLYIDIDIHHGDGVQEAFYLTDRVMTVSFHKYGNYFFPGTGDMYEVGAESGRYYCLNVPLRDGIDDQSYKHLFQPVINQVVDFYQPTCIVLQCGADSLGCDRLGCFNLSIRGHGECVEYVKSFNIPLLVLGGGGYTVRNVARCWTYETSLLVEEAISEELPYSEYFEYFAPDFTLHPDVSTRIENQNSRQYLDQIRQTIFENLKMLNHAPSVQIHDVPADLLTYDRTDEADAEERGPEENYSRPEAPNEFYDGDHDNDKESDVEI

Histone deacetylase 8 = target: T1, Histone deacetylase 8 (Homo sapiens, UniProt Q9BY41); assay: Inhibition of HDAC8 (unknown origin)
T1 sequence (Q9BY41 whole entry): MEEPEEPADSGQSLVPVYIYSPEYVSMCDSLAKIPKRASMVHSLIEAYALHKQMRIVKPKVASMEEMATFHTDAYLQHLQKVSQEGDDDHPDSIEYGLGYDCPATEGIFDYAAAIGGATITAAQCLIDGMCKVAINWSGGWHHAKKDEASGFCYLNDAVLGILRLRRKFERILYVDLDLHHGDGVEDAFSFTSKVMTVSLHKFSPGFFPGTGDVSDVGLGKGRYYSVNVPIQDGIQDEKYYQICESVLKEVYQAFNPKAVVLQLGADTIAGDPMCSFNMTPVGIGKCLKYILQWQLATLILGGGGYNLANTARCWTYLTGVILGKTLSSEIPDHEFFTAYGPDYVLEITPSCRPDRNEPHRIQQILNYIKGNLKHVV

Histone deacetylase 11 = target: T2, Histone deacetylase 11 (Homo sapiens, UniProt Q96DB2); assay: Inhibition of HDAC11 (unknown origin)
T2 sequence (Q96DB2 whole entry): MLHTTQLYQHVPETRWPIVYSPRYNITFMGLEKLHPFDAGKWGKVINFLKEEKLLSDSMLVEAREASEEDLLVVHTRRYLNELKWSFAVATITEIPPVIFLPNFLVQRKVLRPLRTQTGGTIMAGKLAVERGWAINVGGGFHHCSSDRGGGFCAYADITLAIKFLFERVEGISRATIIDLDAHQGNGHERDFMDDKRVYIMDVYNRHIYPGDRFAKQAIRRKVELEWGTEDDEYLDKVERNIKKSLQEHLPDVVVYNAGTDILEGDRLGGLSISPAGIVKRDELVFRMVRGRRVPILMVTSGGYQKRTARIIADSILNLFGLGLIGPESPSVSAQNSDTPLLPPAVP

MGC-803 [2] = assay: Induction of cell cycle arrest in human MGC-803 cells assessed as accumulation at G2/M phase at 2 nM incubated for 24 hrs by propidium iodide staining based flow cytometry (reference value: 28.59 %); type: functional
MGC-803 [3] = assay: Induction of cell cycle arrest in human MGC-803 cells assessed as accumulation at S phase at 2 nM incubated for 24 hrs by propidium iodide staining based flow cytometry (Rvb =31.51 %); type: functional
MGC-803 [4] = assay: Induction of cell cycle arrest in human MGC-803 cells assessed as accumulation at G1 phase at 2 nM incubated for 24 hrs by propidium iodide staining based flow cytometry (Rvb =39.64 %); type: functional
MGC-803 [5] = assay: Induction of apoptosis in human MGC-803 cells assessed as early apoptotic cells at 2 nM measured after 48 hrs by Annexin V-APC/PI double staining based flow cytometry assay (reference value: 2.42 %); type: functional, cell-based
MGC-803 [6] = assay: Induction of apoptosis in human MGC-803 cells assessed as late apoptotic cells at 2 nM measured after 48 hrs by Annexin V-APC/PI double staining based flow cytometry assay (reference value: 3.62 %); type: functional, cell-based
MGC-803 [7] = assay: Induction of apoptosis in human MGC-803 cells assessed as necrotic cells at 2 nM measured after 48 hrs by Annexin V-APC/PI double staining based flow cytometry assay (reference value: 0.44%); type: functional, cell-based
MGC-803 [8] = assay: Induction of apoptosis in human MGC-803 cells assessed as viable cells at 2 nM measured after 48 hrs by Annexin V-APC/PI double staining based flow cytometry assay (Rvb =93.5 %); type: functional, cell-based

Compound	IC50 (U-937)	IC50 (A549)	IC50 (MGC-803 [1])	IC50 (HepG2)	IC50 (MCF7)	IC50 (HeLa)	further results
O=C(NCC1(c2nc(-c3ccccc3)cs2)CCOCC1)c1cccc(-c2noc(C(F)(F)F)n2)c1	–	–	–	–	–	–	IC50 (Histone deacetylase 1): Not Active; IC50 (Histone deacetylase 2): Not Active; IC50 (Histone deacetylase 3): Not Active; IC50 (Histone deacetylase 8): Not Active; IC50 (Histone deacetylase 11): Not Active
COc1ccc(/C=C\c2cc(OC)c(OC)c(OC)c2)cc1O [COMBRETASTATIN A4]	1 nM	–	2 nM	–	–	9 nM	Activity (MGC-803 [2]): Dose-Dependent Effect; Activity (MGC-803 [2]; record 2): 28.25%; Activity (MGC-803 [3]): 31.58%; Activity (MGC-803 [4]): 40.88%; Activity (MGC-803 [5]): Active; Activity (MGC-803 [6]): Active; Activity (MGC-803 [7]): Active; Activity (MGC-803 [8]): Active
O=C(CCCCCCC(=O)Nc1ccccc1)NO [VORINOSTAT]	–	–	–	–	–	–	IC50 (Tubulin): Not Active
COc1ccc(C(=O)c2cc(OC)c(OC)c(OC)c2)cc1OCCCC(=O)NO	> 5000 nM	> 5000 nM	> 5000 nM	> 5000 nM	> 5000 nM	> 5000 nM	–
COc1ccc(/C=C\c2cc(OC)c(OC)c(OC)c2)cc1OCCCCC(=O)Nc1ccccc1N	> 5000 nM	> 5000 nM	> 5000 nM	> 5000 nM	> 5000 nM	> 5000 nM	–
COc1ccc(C(=O)c2cc(OC)c(OC)c(OC)c2)cc1OCCCC(=O)Nc1ccccc1N	> 5000 nM	> 5000 nM	> 5000 nM	> 5000 nM	> 5000 nM	> 5000 nM	–
COc1ccc(/C=C\c2cc(OC)c(OC)c(OC)c2)cc1OCC(=O)NO	> 5000 nM	285 nM	13 nM	122 nM	419 nM	64 nM	–

Second part, led by results:

IC50 (U-937)	IC50 (A549)	IC50 (MGC-803 [1])	IC50 (HepG2)	IC50 (MCF7)	IC50 (HeLa)	Compound	further results
2540 nM	371 nM	63 nM	81 nM	982 nM	31 nM	COc1ccc(/C=C\c2cc(OC)c(OC)c(OC)c2)cc1OCCCC(=O)NO	IC50 (Histone deacetylase): 1400 nM; IC50 (Tubulin; read-out: IC50): 5200 nM
389 nM	440 nM	182 nM	1330 nM	817 nM	440 nM	COc1ccc(/C=C\c2cc(OC)c(OC)c(OC)c2)cc1OCc1ccc(C(=O)NO)cc1	IC50 (Histone deacetylase): 390 nM; IC50 (Tubulin; read-out: IC50): 8600 nM
1130 nM	> 5000 nM	105 nM	521 nM	189 nM	753 nM	COc1ccc(C(=O)c2cc(OC)c(OC)c(OC)c2)cc1OCC(=O)NO	IC50 (Histone deacetylase): 250 nM; IC50 (Tubulin; read-out: IC50): 19600 nM
> 5000 nM	> 5000 nM	> 5000 nM	> 5000 nM	> 5000 nM	> 5000 nM	COc1ccc(/C=C\c2cc(OC)c(OC)c(OC)c2)cc1OCC(=O)Nc1ccccc1N	–
> 5000 nM	> 5000 nM	> 5000 nM	> 5000 nM	> 5000 nM	> 5000 nM	COc1ccc(C(=O)c2cc(OC)c(OC)c(OC)c2)cc1Oc1ccc(C(=O)NO)cc1	–
3750 nM	4690 nM	301 nM	2760 nM	2120 nM	1960 nM	COc1ccc(/C=C\c2cc(OC)c(OC)c(OC)c2)c(/C=C/C(=O)Nc2ccccc2N)c1	–
3320 nM	4810 nM	1130 nM	3560 nM	2810 nM	189 nM	COc1ccc(/C=C\c2cc(OC)c(OC)c(OC)c2)cc1OCCCCC(=O)NO	–
995 nM	2230 nM	146 nM	164 nM	641 nM	61 nM	COc1ccc(/C=C\c2cc(OC)c(OC)c(OC)c2)c(/C=C/C(=O)NO)c1	–
2250 nM	3210 nM	1100 nM	1160 nM	828 nM	1180 nM	COc1ccc(C(=O)c2cc(OC)c(OC)c(OC)c2)cc1/C=C/C(=O)Nc1ccccc1N	–
4330 nM	> 5000 nM	1360 nM	4700 nM	1570 nM	> 5000 nM	COc1ccc(/C=C\c2cc(OC)c(OC)c(OC)c2)cc1Oc1ccc(C(=O)Nc2ccccc2N)cc1	–

— ChEMBL document CHEMBL4828751, “Discovery of novel tubulin/HDAC dual-targeting inhibitors with strong antitumor and antiangiogenic potency” (Eur J Med Chem, 2021)
